# Data from patent US10391201B2, “Gene therapy” (Ospedale San Raffaele S.r.l., priority 2014, dated 2019).
# How the values were obtained:
# CB-derived CD34+ cells [1] = assay: LV replication intermediates (late-RT, 2LTR circles, integrated copies) in CB-derived CD34+ cells; format: cell-based, human
# Experimental: CsA and rapamycin act on distinct steps on the LV life cycle. […] The LV genome fate was tracked by measuring late-RT product (A) and 2LTR circles (B) 24 hours after transduction and integrated proviral copies 2 weeks after transduction (C). Data represent the mean±SEM of four independent experiments expressed as fold versus DMSO WT (A,B) or as absolute copies/cell (C). D. IDLV transduction efficiency was measured 3 days after transduction by FACS and by measuring the retrotranscribed LV DNA products by PCR. Data are the mean±SEM of three independent experiments. P values are for one-way with Bonferonni's multiple comparison. *P<0.05, **P<0.01, ****P<0.0001.
# CsA and rapamycin act on distinct steps on the LV life cycle. […] The LV genome fate was tracked by measuring late-RT product (A) and 2LTR circles (B) 24 hours after transduction and integrated proviral copies 2 weeks after transduction (C). Data represent the mean±SEM of four independent experiments expressed as fold versus DMSO WT (A,B) or as absolute copies/cell (C). D. IDLV transduction efficiency was measured 3 days after transduction by FACS (left panel) and by measuring the retrotranscribed LV DNA products by PCR (right panel). Data are the mean±SEM of three independent experiments. […]
# To analyse viral replication intermediates, transduced cells were washed and resuspended in Monini lysis buffer (0.1% polyoxyethylene 10 lauryl ether (Sigma), 0.1 mg/mL proteinase K (Promega)) (25 μL per 1×10^5 cells), incubated at 65° C. for 2 h and heat inactivated at 94° C. for 15 min (Monini, P. et al. (1999) Blood 93: 4044-58). […] Late-RT and 2LTR circles were measured by semi-quantitative Taqman assay with primers described below and normalised using the human TERT gene. Results are expressed as fold versus the DMSO control, as described above.
# DNA from cell cultures was extracted using a Maxwell 16 instrument (Promega) or Blood & Cell Culture DNA Micro Kit (Qiagen). […] Vector copy numbers and replication intermediates were normalised to genomic DNA content, which was assessed using the human TERT gene. […]
# [2] = test system: bone marrow (BM)-derived CD34+ cells; format: cell-based, human
# Experimental: (§1) Human CB and BM-derived haematopoietic stem/progenitor cells (HSPC) were cultured in serum-free StemSpan medium (StemCell Technologies) supplemented with 100 ng/mL recombinant human stem cell factor (rhSCF), 20 ng/mL recombinant human thrombopoietin (rhTPO), 100 ng/mL recombinant human Flt3 ligand (rhFlt3) and 20 ng/mL recombinant human IL6 (rhIL6) (all from Peprotech) 16 to 24 hours prior to transduction. HSPC were then transduced at a concentration of 1×10^6 cells per mL with vesicular stomatitis virus glycoprotein (VSV-G)-pseudotyped SINLV for 20 hours at the indicated multiplicity of infection (MOI) in the same medium. After transduction, cells were washed and maintained serum-free StemSpan supplemented with cytokines as above until the reading of GFP-positive (GFP+) cells by FACS. After FACS they were maintained in Roswell Park Memorial Institute medium (RPMI, Lonza) supplemented with 10% FBS, 25 ng/mL rhSCF, 5 ng/mL rhIL6, 25 ng/mL rhFlt3 and 5 ng/mL rhTPO for another seven days before analysis of vector copy numbers. MDM were transduced 7 days after differentiation. T lymphocytes were transduced at a concentration of 10^6 cells per mL, after 3 days of stimulation. All the cells were exposed to the vector for 16-20 hours.
# (§2) They were added to the transduction medium at the indicated concentration and washed out with the vector 16-20 hours later.
# (§3) GFP expression in transduced cells was measured 5-7 days post-transduction. Adherent MDM were detached by scraping in 5 mM PBS-EDTA, washed and resuspended in PBS containing 2% FBS. Cells grown in suspension were washed and resuspended in PBS containing 2% FBS. To exclude dead cells from the analysis, 10 ng/mL 7-aminoactinomycin D (7-AAD) was added.
# (§4) DNA from cell cultures was extracted using a Maxwell 16 instrument (Promega) or Blood & Cell Culture DNA Micro Kit (Qiagen). To amplify the vector sequence, primers and probes complementary to the vector Rev responsive element sequence were used. Vector copy numbers and replication intermediates were normalised to genomic DNA content, which was assessed using the human TERT gene. Quantitative polymerase chain reaction (qPCR) primers and probe sequences and conditions were previously described (Santoni de Sio, F. R. et al (2006) Blood 107: 4257-65).
# [3] = test system: cord blood (CB)-derived CD34+ cells; format: cell-based, human
# Experimental: as §1, §2, §3, §4
# CB-derived CD34+ cells [4] = assay: γ-retroviral SINRV-GFP transduction of CB-derived CD34+ cells; format: cell-based, human; conditions: CB-derived HSPC; MOI of 10 (FIG. 24)
# Murine Lin− HSPC = assay: SINLV-GFP transduction of murine Lin- HSPC; format: cell-based; conditions: MOI 1, 10 μM CsA, 10 μg/ml Rapamycin or combination (FIG. 29A)
# Experimental: The percentage of GFP+ cells was evaluated by FACS 5 days post-transduction. Data are the mean±SEM of three independent experiments for HSPC and three independent transductions for CD4+ T cells. p values are for One way ANOVA with Bonferroni's multiple comparison.
smiles,measurement,setting,value
"CO[C@H]1C[C@@H]2CC[C@@H](C)[C@@](O)(O2)C(=O)C(=O)N2CCCC[C@H]2C(=O)O[C@H]([C@H](C)C[C@@H]2CC[C@@H](O)[C@H](OC)C2)CC(=O)[C@H](C)/C=C(\C)[C@@H](O)[C@@H](OC)C(=O)[C@H](C)C[C@H](C)/C=C/C=C/C=C/1C [rapamycin, Rapamycin]",2-long-terminal-repeat (2LTR) circles vs DMSO,"CB-derived CD34+ cells [1]; 10 μg/ml rapamycin, 24 hours after transduction",consequent increase
same,"late-RT products vs DMSO, independently of the CA","CB-derived CD34+ cells [1]; WT, A88T or A92E LV, 10 μg/ml rapamycin, 24 hours after transduction",two to threefold increase
same,integrated vector (proviral) copies vs DMSO,"CB-derived CD34+ cells [1]; all vectors, 2 weeks after transduction",increase
same,increase in the percentage of GFP+ cells,[2],2 fold
same,increase in the percentage of GFP+ cells,[3],2 fold
same,transduction efficiency in titration of Rapa,"[3]; 10 μg/ml vs lower doses, MOI 1 (FIG. 28)",improved transduction efficiency over lower doses
same,GFP+ cells with clinical grade SINLV,"[3]; CB-derived CD34+ cells, clinical grade PGK-GFP SINLV, MOI of 10 (FIG. 25A)",up to 60%
same,transduction efficiency of WT and CA mutant vectors,"[3]; CD34+ cells, SINLVs with single CA point mutations MOI 1, vs DMSO (FIG. 14B)",increased efficiency for all CA mutants
same,transduction levels in all HSPC subpopulations,"[3]; CD34− progenitors to CD34+CD133+CD90+ cells, FACS three days after transduction (FIG. 15C)",equally improved transduction levels
same,percentage of GFP+ cells with γ-retroviral SINRV,CB-derived CD34+ cells [4],neither compound was able to significantly increase
same,transduction (percentage of GFP+ cells),Murine Lin− HSPC,significantly improved transduction
